Source: ChEMBL document CHEMBL1201862, “PubChem BioAssay data set” (2004)
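Five compound concentrations were applied to cells in 96-well plates for 48 hours; endpoints were derived by simple linear interpolation of the resulting dose-response curve. Abbreviation: GI50, concentration required for 50% inhibition of growth.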 Calls of active or inactive are those of the source. No stated cut-off is given here; in the data, active = GI50 up to about 1.1 µM and inactive = higher.

Tests used:
Assay in all cases: inhibition of tumour cell growth, NCI panel, 48 h
SF-539 = system: SF-539
RPMI-8226 = system: RPMI-8226
HCC 2998 = system: HCC 2998
DU-145 = system: DU-145
SNB-19 = system: SNB-19
A498 = system: A498
EKVX = system: EKVX
MOLT-4 = system: MOLT-4
IGROV-1 = system: IGROV-1
SN12C = system: SN12C
COLO 205 = system: COLO 205
CAKI-1 = system: CAKI-1
UO-31 = system: UO-31
T47D = system: T47D
MDA-MB-231 = system: MDA-MB-231
ACHN = system: ACHN
NCI-H23 = system: NCI-H23
UACC-62 = system: UACC-62
OVCAR-8 = system: OVCAR-8
MDA-MB-435 = system: MDA-MB-435

SMILES	GI50 (SF-539)	GI50 (RPMI-8226)	GI50 (HCC 2998)	GI50 (DU-145)	GI50 (SNB-19)	GI50 (A498)	GI50 (EKVX)	GI50 (MOLT-4)	GI50 (IGROV-1)	GI50 (SN12C)	GI50 (COLO 205)	GI50 (CAKI-1)	GI50 (UO-31)	GI50 (T47D)	GI50 (MDA-MB-231)	GI50 (ACHN)	GI50 (NCI-H23)	GI50 (UACC-62)	GI50 (OVCAR-8)	GI50 (MDA-MB-435)
O=C(/C=C/c1ccc(Cl)c(Cl)c1)Oc1ccc(/C=C2\CCCCC2=O)cc1	> 100 µM (inactive)	67.6 µM (inactive)	> 100 µM (inactive)	> 100 µM (inactive)	> 100 µM (inactive)	> 100 µM (inactive)	> 100 µM (inactive)	24.6 µM (inactive)	> 100 µM (inactive)	> 100 µM (inactive)	> 100 µM (inactive)	> 100 µM (inactive)	> 100 µM (inactive)	> 100 µM (inactive)	> 100 µM (inactive)	> 100 µM (inactive)	> 100 µM (inactive)	> 100 µM (inactive)	> 100 µM (inactive)	78.2 µM (inactive)
COc1ccc2nc3ccccc3c(NCCCN(C)CCCl)c2c1	0.249 µM (active)	0.0817 µM (active)	0.388 µM (active)	0.333 µM (active)	0.601 µM (active)	0.458 µM (active)	0.938 µM (active)	< 0.0133 µM (active)	0.328 µM (active)	0.16 µM (active)	0.147 µM (active)	0.231 µM (active)	0.592 µM (active)	0.0358 µM (active)	0.641 µM (active)	0.105 µM (active)	0.135 µM (active)	0.23 µM (active)	0.142 µM (active)	0.298 µM (active)
COC(=O)/C=C1/OC(c2ccc(C)cc2C)=CC1=O	17.2 µM (inactive)	3.63 µM (inactive)	16.7 µM (inactive)	15.5 µM (inactive)	> 10 µM (inactive)	20.7 µM (inactive)	65 µM (inactive)	3.55 µM (inactive)	4.47 µM (inactive)	–	16.6 µM (inactive)	19.5 µM (inactive)	16.8 µM (inactive)	20.1 µM (inactive)	14.3 µM (inactive)	15.8 µM (inactive)	24.5 µM (inactive)	10.6 µM (inactive)	10 µM (inactive)	15.7 µM (inactive)
COC(=O)NC(Cc1ccccc1)NC(C)=O (stereo not drawn)	> 100 µM (inactive)	> 100 µM (inactive)	> 100 µM (inactive)	> 100 µM (inactive)	> 100 µM (inactive)	> 100 µM (inactive)	> 100 µM (inactive)	> 100 µM (inactive)	> 100 µM (inactive)	> 100 µM (inactive)	> 100 µM (inactive)	> 100 µM (inactive)	> 100 µM (inactive)	> 100 µM (inactive)	71 µM (inactive)	> 100 µM (inactive)	> 100 µM (inactive)	> 100 µM (inactive)	> 100 µM (inactive)	> 100 µM (inactive)
C[C@@H]1O[C@@H]2OCC[C@@H]2C2=C1C(=O)c1ccccc1C2=O	8.85 µM (inactive)	7.23 µM (inactive)	17.9 µM (inactive)	9.1 µM (inactive)	18.7 µM (inactive)	18 µM (inactive)	19.8 µM (inactive)	7.74 µM (inactive)	1.98 µM (inactive)	6.35 µM (inactive)	23.9 µM (inactive)	15.2 µM (inactive)	10.8 µM (inactive)	5.12 µM (inactive)	33.7 µM (inactive)	12.2 µM (inactive)	4.88 µM (inactive)	4.35 µM (inactive)	6.85 µM (inactive)	1.94 µM (inactive)
COC1(OC)N=C(N)C2(C#N)C(C)=C3NCN(C)N=C3C12C#N (stereo not drawn)	> 100 µM (inactive)	> 100 µM (inactive)	> 100 µM (inactive)	> 100 µM (inactive)	> 100 µM (inactive)	> 100 µM (inactive)	> 100 µM (inactive)	–	> 100 µM (inactive)	> 100 µM (inactive)	> 100 µM (inactive)	> 100 µM (inactive)	> 100 µM (inactive)	> 100 µM (inactive)	> 100 µM (inactive)	> 100 µM (inactive)	> 100 µM (inactive)	> 100 µM (inactive)	> 100 µM (inactive)	> 100 µM (inactive)
CCOC(=O)c1cc2nc3ccccc3c(=O)n2c2ccccc12	> 10 µM (inactive)	> 10 µM (inactive)	> 10 µM (inactive)	> 10 µM (inactive)	> 10 µM (inactive)	> 10 µM (inactive)	> 10 µM (inactive)	–	> 10 µM (inactive)	> 10 µM (inactive)	> 10 µM (inactive)	> 10 µM (inactive)	> 10 µM (inactive)	> 10 µM (inactive)	> 10 µM (inactive)	> 10 µM (inactive)	> 10 µM (inactive)	> 10 µM (inactive)	> 10 µM (inactive)	> 10 µM (inactive)
CN(C)c1ccc(/C=N\NC(=O)c2ccccc2Nc2ccccc2C(=O)N/N=C/c2ccc(N(C)C)cc2)cc1	20 µM (inactive)	> 100 µM (inactive)	> 100 µM (inactive)	> 100 µM (inactive)	> 100 µM (inactive)	> 100 µM (inactive)	> 100 µM (inactive)	> 100 µM (inactive)	> 100 µM (inactive)	> 100 µM (inactive)	97.5 µM (inactive)	> 100 µM (inactive)	> 100 µM (inactive)	> 100 µM (inactive)	23.3 µM (inactive)	> 100 µM (inactive)	> 100 µM (inactive)	> 100 µM (inactive)	> 100 µM (inactive)	> 100 µM (inactive)
COc1ccc2cc(C(=O)NCCc3ccccc3)ccc2c1OC	32.2 µM (inactive)	> 100 µM (inactive)	34.8 µM (inactive)	> 100 µM (inactive)	68.1 µM (inactive)	37.5 µM (inactive)	> 100 µM (inactive)	> 100 µM (inactive)	> 100 µM (inactive)	> 100 µM (inactive)	> 100 µM (inactive)	> 100 µM (inactive)	–	26.5 µM (inactive)	33.6 µM (inactive)	> 100 µM (inactive)	> 100 µM (inactive)	> 100 µM (inactive)	79.6 µM (inactive)	> 100 µM (inactive)
COc1ccc(CNc2ccn(C3OC(CO)C(O)C3O)c(=O)n2)cc1 (stereo not drawn)	> 100 µM (inactive)	86.9 µM (inactive)	48.8 µM (inactive)	> 100 µM (inactive)	> 100 µM (inactive)	> 100 µM (inactive)	73.5 µM (inactive)	45.1 µM (inactive)	> 100 µM (inactive)	> 100 µM (inactive)	> 100 µM (inactive)	> 100 µM (inactive)	81.7 µM (inactive)	25.4 µM (inactive)	> 100 µM (inactive)	> 100 µM (inactive)	88.7 µM (inactive)	74.5 µM (inactive)	> 100 µM (inactive)	44.8 µM (inactive)
CC(=O)Nc1nc(C)c(S(=O)(=O)NC(=O)N2c3ccccc3CCc3ccccc32)s1	> 100 µM (inactive)	> 100 µM (inactive)	> 100 µM (inactive)	> 100 µM (inactive)	29.4 µM (inactive)	> 100 µM (inactive)	> 100 µM (inactive)	89.5 µM (inactive)	> 100 µM (inactive)	> 100 µM (inactive)	> 100 µM (inactive)	> 100 µM (inactive)	> 100 µM (inactive)	> 100 µM (inactive)	> 100 µM (inactive)	> 100 µM (inactive)	> 100 µM (inactive)	> 100 µM (inactive)	> 100 µM (inactive)	> 100 µM (inactive)
CC(Cl)CC(=O)OCC1CCCN2CCCCC12 (stereo not drawn)	> 100 µM (inactive)	> 100 µM (inactive)	> 100 µM (inactive)	> 100 µM (inactive)	> 100 µM (inactive)	> 100 µM (inactive)	> 100 µM (inactive)	> 100 µM (inactive)	–	> 100 µM (inactive)	> 100 µM (inactive)	> 100 µM (inactive)	> 100 µM (inactive)	> 100 µM (inactive)	> 100 µM (inactive)	> 100 µM (inactive)	> 100 µM (inactive)	> 100 µM (inactive)	> 100 µM (inactive)	> 100 µM (inactive)
CC(C)(C)OC[C@H](O)CC#N	> 100 µM (inactive)	> 100 µM (inactive)	> 100 µM (inactive)	> 100 µM (inactive)	> 100 µM (inactive)	> 100 µM (inactive)	> 100 µM (inactive)	> 100 µM (inactive)	–	> 100 µM (inactive)	> 100 µM (inactive)	> 100 µM (inactive)	> 100 µM (inactive)	> 100 µM (inactive)	> 100 µM (inactive)	> 100 µM (inactive)	> 100 µM (inactive)	> 100 µM (inactive)	> 100 µM (inactive)	> 100 µM (inactive)
C#CCN(Cc1ccc2[nH]c(N)nc(=O)c2c1)c1ccc(C(=O)NC(CCC(=O)O)C(=O)O)cc1 (stereo not drawn)	0.506 µM (active)	7.46 µM (inactive)	> 100 µM (inactive)	5.94 µM (inactive)	40.4 µM (inactive)	15.7 µM (inactive)	> 100 µM (inactive)	5.4 µM (inactive)	62.1 µM (inactive)	6.71 µM (inactive)	12 µM (inactive)	5.3 µM (inactive)	5.66 µM (inactive)	9.35 µM (inactive)	> 100 µM (inactive)	3.82 µM (inactive)	> 100 µM (inactive)	–	4.4 µM (inactive)	> 100 µM (inactive)
